Results as given in the NIST ThermoML archive (doi:10.1016/j.fluid.2017.05.008).
Numbers after ± are expanded uncertainties.

Test: an = ratio of the nth substance listed
Details: 298.15 K; for surface tension liquid-gas: Ring tensiometer; for viscosity: 101 kPa, Liquid, Concentric cylinders viscometry

OCCCCO [1,4-butanediol] + C[N+](C)(C)CCO.[Cl-]
surface tension liquid-gas (a1 = 3): 55.8 ± 0.9 mN/m
viscosity (a1 = 3): 94 ± 6 mPa·s

C[N+](C)(C)CCO.[Cl-] [choline chloride] + OCC(O)CO
surface tension liquid-gas (a2 = 2): 68.7 ± 1.1 mN/m
viscosity (a2 = 2): 296 ± 32 mPa·s

NC(N)=O [urea] + C[N+](C)(C)CCO.[Cl-]
surface tension liquid-gas (a1 = 2): 71.6 ± 1.2 mN/m
viscosity (a1 = 2): 849 ± 150 mPa·s

OCCCCCO [1,5-pentanediol] + C[N+](C)(C)CCO.[Cl-]
surface tension liquid-gas (a1 = 3.5): 47.5 ± 0.8 mN/m
viscosity (a1 = 3.5): 110 ± 7 mPa·s

C[N+](C)(C)CCO.[Cl-] [choline chloride] + OCCO
surface tension liquid-gas (a2 = 2): 56.5 ± 0.6 mN/m
viscosity (a2 = 2): 40 ± 2 mPa·s

O.O.O=C(O)C(=O)O [ethanedioic acid dihydrate] + C[N+](C)(C)CCO.[Cl-]
surface tension liquid-gas (a1 = 1): 60.8 ± 1 mN/m
viscosity (a1 = 1): 767 ± 140 mPa·s
